Where two headings read alike, the source gives them in different places. *1 amine or outer side, *2 acyl side, *3 side chain or, on linkers, in order; H or OH if unused. Where a SMILES comes first, the peptide text is derived from it. Bridges are numbered along the chain shown (N, C = ends). [ ]: non-standard residue; d: D form. The star is where a group is joined. ξ: configuration not given here. Phe(3,5-F2) = N[C@@H](Cc1cc(F)cc(F)c1)C(=O)O; Morpholine(3S-CO) = O=C(O)[C@@H]1COCCN1; Pro(4S-Me) = C[C@@H]1CN[C@H](C(=O)O)C1; NH(4-Cl-2-F-phenyl) = Fc1cc(Cl)ccc1N*; Pro(4R-Me) = C[C@H]1CN[C@H](C(=O)O)C1; NMeaThr = CN[C@H](C(=O)O)[C@H](C)O; Hyp = O=C(O)[C@@H]1C[C@@H](O)CN1; NMeT = CN[C@H](C(=O)O)[C@@H](C)O; Heptenoyl(2E) = CCCC/C=C/C(=O)*; NH(4-Me-phenyl) = Cc1ccc(N*)cc1; ξNMeThr = CNC(C(=O)O)[C@@H](C)O; aThr = C[C@H](O)[C@H](N)C(=O)O; Pip = O=C(O)[C@@H]1CCCCN1; NMeA = CN[C@@H](C)C(=O)O; X2 = CN1CCc2ccc(N*)cc21; X1 = N#Cc1cc(N*)ccc1F; CO = O=C([*:1])[*:2]; X7 = CC/C=C/C(=O)*
Target: T1, Sa-ClpP (Staphylococcus aureus, UniProt Q2G036)
T1 construct: made in house; host or cells: E. coli BL21(DE3)
T1 sequence (Q2G036 1-195): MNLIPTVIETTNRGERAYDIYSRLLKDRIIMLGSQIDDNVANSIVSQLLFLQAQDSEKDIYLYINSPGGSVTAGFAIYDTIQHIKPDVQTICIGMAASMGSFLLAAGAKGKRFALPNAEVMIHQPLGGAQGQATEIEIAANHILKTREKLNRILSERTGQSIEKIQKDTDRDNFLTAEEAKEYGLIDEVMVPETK
Assay: Sa-ClpP casein-BODIPY ClpP activation assay, method variant not marked in Table 5
Format: biochemical, S. aureus
Outline: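 EC50 for activation derived by dose-response fitting of casein digestion rates, run in triplicate. Conditions: 37° C, pH 8 buffer with 200 mM KCl and 1 mM TCEP, 10 μM Sa-ClpP, 25 μg/ml BODIPY FL casein, compound at 0-1000 μM; signal at 485/528 nm followed 45 min.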

[1] = values without ** or † mark, assay variant not stated, read-out: ClpP Activation EC50

Row | Compound | EC50 [1] [nM] | EC50 [nM]
1 | C[C@@H]1C[C@H]2C(=O)O[C@@H](C)[C@H](NC(=O)[C@H](Cc3cc(F)cc(F)c3)NC(=O)Nc3ccc4c(c3)N(C)CC4)C(=O)N3CCC[C@H]3C(=O)N3CCCC[C@H]3C(=O)N[C@@H](C)C(=O)N2C1 [Compound 321, (S)-3-(3,5-difluorophenyl)-2-(3-(1-methylindolin-6-yl)ureido)-N-((2R,6S,8aS,14aS,20S,21S,23aS)-2,6,21-trimethyl-5,8,14,19,23-pentaoxooctadecahydro-1H,5H,14H,19H-pyrido[2,1-i]dipyrrolo[2,1-c:2′,1′-l][1]oxa[4,7,10,13]tetraazacyclo-hexadecin-20-yl)propanamide] ({X2-CO}-[Phe(3,5-F2)][aThr]P[Pip]A[Pro(4R-Me)]; ester 2-C) | 520 ± 20 | –
2 | Cc1ccc(NC(=O)N[C@@H](Cc2cc(F)cc(F)c2)C(=O)N[C@@H]2C(=O)N3CCC[C@H]3C(=O)N3CCCC[C@H]3C(=O)N[C@@H](C)C(=O)N3C[C@H](C)C[C@H]3C(=O)O[C@H]2C)cc1 [Compound 209, (S)-3-(3,5-difluorophenyl)-2-(3-(p-tolyl)ureido)-N-((2R,6S,8aS,14aS,20S,21S,23aS)-2,6,21-trimethyl-5,8,14,19,23-pentaoxooctadecahydro-1H,5H,14H,19H-pyrido[2,1-i]dipyrrolo[2,1-c:2′,1′-l][1]oxa[4,7,10,13]tetraazacyclohexadecin-20-yl)propanamide] ({NH(4-Me-phenyl)-CO}-[Phe(3,5-F2)][aThr]P[Pip]A[Pro(4R-Me)]; ester 2-C) | 360 ± 30 | –
3 | CCCC/C=C/C(=O)N[C@@H](Cc1cc(F)cc(F)c1)C(=O)N[C@@H]1C(=O)N2C[C@H](O)C[C@H]2C(=O)N2CCOC[C@H]2C(=O)N[C@@H](C)C(=O)N2C[C@H](C)C[C@H]2C(=O)O[C@H]1C [Compound 309, (E)-N—((S)-3-(3,5-difluorophenyl)-1-(((6aS,8R,12S,13S,15aS,17R,21S,23aS)-8-hydroxy-13,17,21-trimethyl-6,11,15,20,23-pentaoxooctadecahydro-6H,11H,15H-[1,4]oxazino[3,4-i]dipyrrolo[2,1-c:2′,1′-l][1]oxa[4,7,10,13]tetraazacyclohexadecin-12-yl)amino)-1-oxopropan-2-yl)hept-2-enamide] ({Heptenoyl(2E)}-[Phe(3,5-F2)][aThr][Hyp][Morpholine(3S-CO)]A[Pro(4R-Me)]; ester 2-C) | 480 ± 20 | –
4 | CC/C=C/C(=O)N[C@@H](Cc1cc(F)cc(F)c1)C(=O)N[C@@H]1C(=O)N2C[C@H](O)C[C@H]2C(=O)N2CCCC[C@H]2C(=O)N[C@@H](C)C(=O)N2C[C@H](C)C[C@H]2C(=O)O[C@H]1C [Compound 300] (X7-[Phe(3,5-F2)][aThr][Hyp][Pip]A[Pro(4R-Me)]; ester 2-C) | 440 ± 30 | –
5 | C[C@@H]1C[C@H]2C(=O)OC[C@H](NC(=O)[C@H](Cc3cc(F)cc(F)c3)NC(=O)Nc3ccc4c(c3)OCO4)C(=O)N3C[C@H](O)C[C@H]3C(=O)N3CCCCC3C(=O)N[C@@H](C)C(=O)N2C1 (stereo partly drawn) [Compound 325, (S)-2-(3-(benzo[d][1,3]dioxol-5-yl)ureido)-3-(3,5-difluorophenyl)-N-((2R,6S,8aR,14aS,16R,20S,23aS)-16-hydroxy-2,6-dimethyl-5,8,14,19,23-pentaoxooctadecahydro-1H,5H,14H,19H-pyrido[2,1-i]dipyrrolo[2,1-c:2′,1′-l][1]oxa[4,7,10,13]tetraazacyclo-hexadecin-20-yl)propanamide] | – | 350 ± 20
6 | C[C@@H]1C[C@H]2C(=O)O[C@@H](C)[C@H](NC(=O)[C@H](Cc3cc(F)cc(F)c3)NC(=O)Nc3ccc(Cl)cc3F)C(=O)N3CCC[C@H]3C(=O)N(C)C([C@@H](C)O)C(=O)N[C@@H](C)C(=O)N2C1 (stereo partly drawn) [Compound 313, (S)-2-(3-(4-chloro-2-fluorophenyl)ureido)-3-(3,5-difluorophenyl)-N-((2R,6S,9R,11aS,17S,18S,20aS)-9-((R)-1-hydroxyethyl)-2,6,10,18-tetramethyl-5,8,11,16,20-pentaoxohexadecahydro-1H,5H,16H-dipyrrolo[2,1-c:2′,1′-l][1]oxa[4,7,10,13]tetraazacyclohexadecin-17-yl)propanamide] ({NH(4-Cl-2-F-phenyl)-CO}-[Phe(3,5-F2)][aThr]P[ξNMeThr]A[Pro(4R-Me)]; ester 2-C) | – | 340 ± 10
7 | CCCC/C=C/C(=O)N[C@@H](Cc1cc(F)cc(F)c1)C(=O)N[C@@H]1C(=O)N2CCC[C@H]2C(=O)N(C)[C@@H]([C@@H](C)O)C(=O)N[C@@H](C)C(=O)N2C[C@H](C)C[C@H]2C(=O)O[C@H]1C [Compound 308, (E)-N—((S)-3-(3,5-difluorophenyl)-1-(((2R,6S,9S,11aS,17S,18S,20aS)-9-((R)-1-hydroxyethyl)-2,6,10,18-tetramethyl-5,8,11,16,20-pentaoxohexadecahydro-1H,5H,16H-dipyrrolo[2,1-c:2′,1′-l][1]oxa[4,7,10,13]tetraazacyclohexadecin-17-yl)amino)-1-oxopropan-2-yl)hept-2-enamide] ({Heptenoyl(2E)}-[Phe(3,5-F2)][aThr]P[NMeT]A[Pro(4R-Me)]; ester 2-C) | 280 ± 20 | –
8 | C[C@@H]1C[C@H]2C(=O)O[C@@H](C)[C@H](NC(=O)[C@H](Cc3cc(F)cc(F)c3)NC(=O)Nc3ccc(Cl)cc3F)C(=O)N3CCC[C@H]3C(=O)N3CCOC[C@H]3C(=O)N[C@@H](C)C(=O)N2C1 [Compound 314, (S)-2-(3-(4-chloro-2-fluorophenyl)ureido)-3-(3,5-difluorophenyl)-N-((6aS,12S,13S,15aS,17R,21S,23aS)-13,17,21-trimethyl-6,11,15,20,23-pentaoxooctadecahydro-6H,11H,15H-[1,4]oxazino[3,4-i]dipyrrolo[2,1-c:2′,1′-l][1]oxa[4,7,10,13]tetraazacyclo-hexadecin-12-yl)propanamide] ({NH(4-Cl-2-F-phenyl)-CO}-[Phe(3,5-F2)][aThr]P[Morpholine(3S-CO)]A[Pro(4R-Me)]; ester 2-C) | – | 400 ± 10
9 | Cc1ccc(NC(=O)N[C@@H](Cc2cc(F)cc(F)c2)C(=O)N[C@H]2COC(=O)[C@@H]3C[C@@H](C)CN3C(=O)[C@H](C)NC(=O)[C@@H]3COCCN3C(=O)[C@@H]3C[C@@H](O)CN3C2=O)cc1 [Compound 317, (S)-3-(3,5-difluorophenyl)-N-((6aS,8R,12S,15aS,17R,21S,23aS)-8-hydroxy-17,21-dimethyl-6,11,15,20,23-pentaoxooctadecahydro-6H,11H,15H-[1,4]oxazino[3,4-i]dipyrrolo[2,1-c:2′,1′-l][1]oxa[4,7,10,13]tetraazacyclohexadecin-12-yl)-2-(3-(p-tolyl)ureido)propanamide] ({NH(4-Me-phenyl)-CO}-[Phe(3,5-F2)]S[Hyp][Morpholine(3S-CO)]A[Pro(4R-Me)]; ester 2-C) | 380 ± 30 | –
10 | Cc1ccc(NC(=O)N[C@@H](Cc2cc(F)cc(F)c2)C(=O)N[C@@H]2C(=O)N3CCC[C@H]3C(=O)N(C)[C@@H]([C@H](C)O)C(=O)N[C@@H](C)C(=O)N3C[C@@H](C)C[C@H]3C(=O)O[C@H]2C)cc1 [Compound 202, (S)-3-(3,5-difluorophenyl)-N-((2S,6S,9S,11aS,17S,18S,20aS)-9-((S)-1-hydroxyethyl)-2,6,10,18-tetramethyl-5,8,11,16,20-pentaoxohexadecahydro-1H,5H,16H-dipyrrolo[2,1-c:2′,1′-L][1]oxa[4,7,10,13]tetraazacyclohexadecin-17-yl)-2-(3-(p-tolyl)ureido)propanamide] ({NH(4-Me-phenyl)-CO}-[Phe(3,5-F2)][aThr]P[NMeaThr]A[Pro(4S-Me)]; ester 2-C) | 480 ± 30 | –
11 | C[C@@H]1C[C@H]2C(=O)O[C@@H](C)[C@H](NC(=O)[C@H](Cc3cc(F)cc(F)c3)NC(=O)Nc3ccc(F)c(C#N)c3)C(=O)N3CCC[C@H]3C(=O)N3CCCC[C@H]3C(=O)N[C@@H](C)C(=O)N2C1 [Compound 324, (S)-2-(3-(3-cyano-4-fluorophenyl)ureido)-3-(3,5-difluorophenyl)-N-((2R,6S,8aS,14aS,20S,21S,23aS)-2,6,21-trimethyl-5,8,14,19,23-pentaoxooctadecahydro-1H,5H,14H,19H-pyrido[2,1-i]dipyrrolo[2,1-c:2′,1′-l][1]oxa[4,7,10,13]tetraazacyclo-hexadecin-20-yl)propanamide] ({X1-CO}-[Phe(3,5-F2)][aThr]P[Pip]A[Pro(4R-Me)]; ester 2-C) | – | 500 ± 30
12 | Cc1ccc(NC(=O)N[C@@H](Cc2cc(F)cc(F)c2)C(=O)N[C@@H]2C(=O)N3C[C@H](O)C[C@H]3C(=O)N(C)[C@@H](C)C(=O)N[C@@H](C)C(=O)N3C[C@@H](C)C[C@H]3C(=O)O[C@H]2C)cc1 [Compound 214, (S)-3-(3,5-difluorophenyl)-N-((2S,6S,9S,11aS,13R,17S,18S,20aS)-13-hydroxy-2,6,9,10,18-pentamethyl-5,8,11,16,20-pentaoxohexadecahydro-1H,5H,16H-dipyrrolo[2,1-c:2′,1′-l][1]oxa[4,7,10,13]tetraazacyclohexadecin-17-yl)-2-(3-(p-tolyl)ureido)propanamide] ({NH(4-Me-phenyl)-CO}-[Phe(3,5-F2)][aThr][Hyp][NMeA]A[Pro(4S-Me)]; ester 2-C) | 1280 ± 30 | –
13 | Cc1ccc(NC(=O)N[C@@H](Cc2cc(F)cc(F)c2)C(=O)N[C@H]2COC(=O)[C@@H]3C[C@@H](C)CN3C(=O)[C@H](C)NC(=O)C3CCCCN3C(=O)[C@@H]3C[C@@H](O)CN3C2=O)cc1 (stereo partly drawn) [Compound 323, (S)-3-(3,5-difluorophenyl)-N-((2R,6S,8aR,14aS,16R,20S,23aS)-16-hydroxy-2,6-dimethyl-5,8,14,19,23-pentaoxooctadecahydro-1H,5H,14H,19H-pyrido[2,1-i]dipyrrolo[2,1-c:2′,1′-l][1]oxa[4,7,10,13]tetraazacyclohexadecin-20-yl)-2-(3-(p-tolyl)ureido)propanamide] | 670 ± 20 | –

Source: US10457707B2, “Substituted urea depsipeptide analogs as activators of the CLPP endopeptidase” (priority 2015, dated 2019)
